According to US20200102349A1, “PEPTIDE REAGENTS AND METHODS FOR DETECTION AND TARGETING OF DYSPLASIA, EARLY CANCER AND CANCER” (THE REGENTS OF THE UNIVERSITY OF MICHIGAN, priority 2014, published 2020):

Experiments:
EGFR = EGFR (Homo sapiens, UniProt P00533); assay: Co-localization of EGFR peptide and anti-EGFR antibody binding on colorectal cancer cells; format: cell-based; design: endogenous in cells; host or cells: HT29 human colorectal adenocarcinoma cells (ATCC)
Method: We evaluated co-localization of binding by the QRH*-Cy5.5 peptide and a validated anti-EGFR antibody on cells that overexpress EGFR. A panel of colorectal cancer cells (HT29, SW480, and SW620) was grown on cover slips to […]. QRH*-Cy5.5 at 5 μM concentration was incubated with each cell line for 1 hour at 4° C. The cells were washed and fixed with 4% PFA for 5 min. The cells were incubated with primary anti-EGFR antibody and secondary AF488-labeled antibody, as described previously. We applied the peptide rather than the antibody to the cells first because the peptide has a lower affinity and in the lower concentration (<10 μM) is less likely to interfere with antibody binding. Confocal fluorescence images were collected with FITC, Cy5.5, and DAPI filters using a 63× oil-immersion objective.

[1] = test system: colonic dysplasia (flat lesions and polyps); assay: In vivo NIR fluorescence endoscopy of colon in CPC;Apc mouse; conditions: for mean (±SD) log of the T/B ratio: topical 100 μM, 5 min incubation
Method: For the in vivo fluorescence images of mouse colon, the T/B ratios for flat dysplasia and polyps were log-transformed to improve normality. The fold-change between classification pairs was estimated using the anti-log of the difference in the log-transformed data. Differences in results between the experimental and control peptides were evaluated on t-test. *P<0.05 was considered significant. Similar methods were used to evaluate the ex vivo fluorescence images of human colonic specimens. The results were plotted on a receiver-operator characteristic (ROC) curve. Co-localization of peptide and antibody binding was evaluated on Pearson's correlation coefficient. All analyses were performed using custom Matlab software (MathWorks Inc).
Mouse imaging studies were performed with approval of the University of Michigan Committee on the Use and Care of Animals (UCUCA). The mice were housed in pathogen-free conditions and supplied water ad libitum under controlled conditions of humidity (50±10%), light (12/12 hour light/dark cycle) and temperature (25° C.). Anesthesia was induced and maintained via a nose cone with inhaled isoflurane mixed with oxygen at a concentration of 2-4% at a flow rate of ˜0.5 L/min. The colon was first rinsed with tap water to remove mucous and debris. White light illumination was used first to identify anatomic landmarks, including polyps, mucosal folds, colonic segment, and distance of endoscope tip from anus, to register images with histology. The Cy5.5-labeled peptides were delivered at a concentration of 100 μM in a volume of 1.5 mL through the 3 Fr instrument channel. After 5 min for incubation, the colon was rinsed 3× with a tap water to remove the unbound peptides. After imaging was completed, the mice were euthanized. The colon was resected, and divided along the longitudinal axis. Flat lesions and polyps were identified on fluorescence, excised perpendicular to the mucosal surface, and processed for histology (H&E). We collected images from mice (n=5) that ranged in age from 7 to 10 months.
Imaging was performed using a small animal endoscope (Karl Storz Veterinary Endoscopy).^39 A xenon light source provides white light illumination via a fluid light cable. A diode-pumped solid state laser (TechnicaLaser Inc) provides excitation at λex=671 nm. The laser beam is expanded to a diameter of 3 mm to fill the aperture of the light cable. The laser power at the tip of the endoscope is <2 mW. The white light images reflect off a dichroic mirror (Semrock Inc, # FF685-Di02-25×36, λc=685 nm), and are focused by an achromatic doublet (Edmund Optics Inc, #32-323). They pass through a neutral density filter (OD 1), and are detected by a color camera (Point Grey Research, # GX-FW-28S5C-C). The fluorescence images pass through the dichroic and a band pass filter (Semrock Inc, # FF01-716/40-25, λC=716 nm, Δλ=40 nm), and are focused on a monochrome camera (Point Grey Research, # GX-FW-28S5M-C). All videos (1932×1452 resolution) are recorded at 15 frames per sec via a firewire connection.
White light and fluorescence videos were exported in avi format with 24 (RGB) and 8 (grayscale) bit digital resolution for the color and fluorescence images, respectively. […] Individual frames were exported using custom Matlab software. On the fluorescence images, 3 regions of interest (ROI, 25×25 pixels) were picked at random within the dysplastic lesion and within adjacent areas of normal-appearing mucosa. The mean intensities within these ROI's on the fluorescence images were measured. The target to-background (T/B) ratio for each image was determined by ratioing the mean intensities of these two ROIs.

- co-localization with AF488-labeled anti-EGFR antibody (EGFR; HT29 cells, 5 μM): co-localize
- binding on confocal microscopy (EGFR; SW620 cells): Minimal binding
Substance: QRHKPRE (SEQ ID NO: 1) with Cy5.5 fluorophore attached via a GGGSK linker (SEQ ID NO: 18) on the C-terminus [QRH*-Cy5.5]
- mean fold-difference of T/B, QRH*-Cy5.5 versus PEH*-Cy5.5 ([1]; flat lesions (n=15)): 2.05
- mean (±SD) log of the T/B ratio ([1]; flat lesions (n=15)): 0.420±0.103
- mean fold-difference of T/B, QRH*-Cy5.5 versus PEH*-Cy5.5 ([1]; polyps (n=15)): 2.43
- mean (±SD) log of the T/B ratio ([1]; polyps (n=15)): 0.572±0.181
- NIR fluorescence signal from polyp and flat lesions in vivo ([1]; topical, distal colon, 5 min): increased intensity
